These results are taken from paper PMC10534422, “Divergence in Glyphosate Susceptibility between Steinchisma laxum Populations Involves a Pro106Ser Mutation” (Plants, 2023).

Test [1] concerns T1, EPSPS (5-enolpyruvylshikimate-3-phosphate synthase).
T1 construct: native enzyme extracted from leaf tissue, not purified to homogeneity, activity per total soluble protein
Put plainly: EPSPS activity by phosphate release (EnzChek Phosphate Assay), leaf extract. The class given is biochemical, Steinchisma laxum. As to conditions: S population; glyphosate 0-1000 µM; read-out: I50.

The test system is the same in test [2]. Described as above. Type of test: biochemical, Steinchisma laxum. As to conditions: R population (Pro106Ser found in R plants); glyphosate 0-1000 µM; stated gain; read-out: I50.

SMILES strings stand for the structures. Read-outs that look alike come from different tables or passages of the source.

For the compound `O=C(O)CNCP(=O)(O)O` [glyphosate, N-(phosphonomethyl) glycine], the values for the IC50 in test [1] and in test [2] were 0.98 µM and 14.7 µM, respectively.
